Test [1] concerns the target Human immunodeficiency virus type 1 protease (Human immunodeficiency virus 1, UniProt Q72874). The test is described as follows: Compound was evaluated for the inhibition of HIV protease.
Another test deals with MT2. Description: Antiviral activity against […] RF infected MT-2 cells. Type of test: functional, cell-based. To be noted: Homo sapiens.

The text below walks through data of ChEMBL document CHEMBL1150433, “Synthesis and activity of conformationally-constrained macrocyclic norstatine-based inhibitors of HIV protease” (Bioorg Med Chem Lett, 1996).

Structures are written as SMILES. pEC50, pIC50: −log10 of the molar value.

On to `CC(C)(C)OC(=O)[C@@H]1CCCN1C[C@@H](O)[C@H](Cc1ccccc1)NC(=O)[C@H](CC(N)=O)NC(=O)c1ccc2ccccc2n1`, for which the pIC50 in test [1] is 7.64.
`CC(C)(C)NC(=O)[C@@H]1CCCN1C(=O)[C@@H](O)[C@@H]1Cc2ccc(cc2)OCCCOc2cc3ccccc3cc2C(=O)N[C@@H](CC(N)=O)C(=O)N1` had a pIC50 in test [1] of 7.72. This molecule also showed a negative-log EC50 (pEC50) in the test with MT2 of 7.12.
In test [1], `CC(C)(C)NC(=O)[C@@H]1CCCN1C(=O)[C@H](O)[C@@H]1Cc2ccc(cc2)OCCCOc2cc3ccccc3cc2C(=O)N[C@@H](CC(N)=O)C(=O)N1` gave a pIC50 of 5.42.
